The results in this text go back to the SangsterLogP compilation.

As a reminder, the logP is the decadic logarithm of the partition coefficient of the neutral form, usually between octanol and water. Low values mean a more hydrophilic compound, high ones a more lipophilic compound. `Oc1ccc(-c2nc3ccccc3s2)cc1I` showed a log partition coefficient (logP) of 2.22.
The compound `Nc1ccc(-c2nc3ccccc3s2)cc1` gave a logP of 1.98.
Take `COc1ccc2nc(-c3ccc(O)c(I)c3)sc2c1`: the logP turned out to be 2.31.
Next, `CNc1ccc(-c2nc3ccc([N+](=O)[O-])cc3s2)cc1`: 2.96; `CNc1ccc(-c2nc3ccc(O)cc3s2)cc1I`: 2.35.
Turning to `CNc1ccc(-c2nc3ccccc3s2)cc1I`, the logP came to 3.9.
As for `Oc1ccc(-c2nc3ccc(O)c(I)c3s2)cc1`, the log partition coefficient (logP) stood at 1.01.
Consider `COc1ccc(-c2nc3ccc(O)cc3s2)cc1`, for which the lipophilicity (logP) was 1.75.
Consider `COc1ccc(-c2nc3ccc(O)c(I)c3s2)cc1`, for which the lipophilicity (logP) stood at 2.49.
`Nc1ccc(-c2nc3ccccc3s2)cc1I`: the lipophilicity (logP) came to 3.17.
In the case of `Nc1ccc(-c2nc3ccc(O)cc3s2)cc1I`, the lipophilicity (logP) amounted to 1.65.
`Oc1ccc(-c2nc3ccccc3s2)cc1` returned a logP of 1.86.
On to `COC(=O)c1ccc2nc(-c3ccc(N)c(I)c3)sc2c1`, for which the logP is 3.29.
Next, `COCOc1ccc2nc(-c3ccc(N)cc3)sc2c1`: 1.86; `Nc1ccc(-c2nc3ccc(Br)cc3s2)cc1`: 2.87; `COc1ccc2nc(-c3ccc(O)cc3)sc2c1`: 1.8.
Next, `COCOc1ccc2nc(-c3ccc(N)c(I)c3)sc2c1`: 3.03.
Next, `COc1ccc(-c2nc3ccc(N)c(I)c3s2)cc1`: 2.95; `CNc1ccc(-c2nc3ccc(Br)cc3s2)cc1I`: 4.86.
Take `COc1ccc(-c2nc3ccc(N)cc3s2)cc1`: the logP is 1.76.
`Nc1ccc(-c2nc3ccc([N+](=O)[O-])cc3s2)cc1`: the lipophilicity (logP) was 2.21.
`COc1ccc2nc(-c3ccc(N)c(I)c3)sc2c1`: the logP was 3.08.
As for `CNc1ccc(-c2nc3ccc(OC)cc3s2)cc1I`, the lipophilicity (logP) is 3.8.
Regarding `COC(=O)c1ccc2nc(-c3ccc(N)cc3)sc2c1`, the logP came out at 2.07.
In turn, `Oc1ccc2nc(-c3ccc(O)c(I)c3)sc2c1` gave a logP of 1.09.
In turn, `CNc1ccc(-c2nc3ccc(OC)cc3s2)cc1` had a logP of 2.58.
As for `Nc1ccc2nc(-c3ccc(O)cc3)sc2c1I`, the log partition coefficient (logP) was 1.6.
For the compound `CNc1ccc(-c2nc3ccc(Br)cc3s2)cc1`, the logP turned out to be 3.64.
Take `CNc1ccc(-c2nc3ccc([N+](=O)[O-])cc3s2)cc1I`: the logP came to 4.08.
Consider `Nc1ccc(-c2nc3ccc([N+](=O)[O-])cc3s2)cc1I`, for which the logP turned out to be 3.33.
For `Nc1ccc(-c2nc3ccc(Br)cc3s2)cc1I` the value was 4.11; for `COc1ccc2nc(-c3ccc(N)cc3)sc2c1`, 1.87.
